Laboratory results reported in article PMC5421785, “Citrullination only infrequently impacts peptide binding to HLA class II MHC” (PLoS ONE, 2017).
Read-outs that look alike come from different tables or passages of the source. Square brackets hold non-standard residues; d marks the D form. Peptide text beside a SMILES is read from it. Cit = NC(=O)NCCC[C@H](N)C(=O)O

Assays:
HLA-DRB1*01:01 = molecular target: T1, HLA-DRB1*01:01 (Homo sapiens, UniProt P01903+P01911, A100R/D57E/F55L/F60I/F76Y/I96L/L162R/M171V/P40L/Q125E/R42F/V115G/Y59C); assay: HLA class II peptide binding, inhibition of radiolabeled peptide binding to purified MHC
T1 construct: EBV transformed homozygous cell lines were used as sources of MHC molecules; endogenous in cells; host or cells: EBV transformed homozygous cell lines

HLA-DRB1*04:01 = molecular target: T2, HLA-DRB1*04:01 (Homo sapiens, UniProt P01903+P01911, A100K/A169T/F76Y/I96L/K127E/L162R/M171V/N62H/P40V/Q125Y/R42H/S133A/S149N/S66Y/V115G/V209L/W38E); assay: as above
T2 construct: EBV transformed homozygous cell lines were used as sources of MHC molecules; endogenous in cells; host or cells: EBV transformed homozygous cell lines

[1] = citrullinated 15-mer (X), purified MHC, inhibition of radiolabeled peptide binding, dash = IC50 >40,000 nM, read-out: DRB1*01:01 binding capacity, Cit peptide (IC50 nM)
[2] = citrullinated 15-mer (X), purified MHC, inhibition of radiolabeled peptide binding, dash = IC50 >40,000 nM, read-out: DRB1*04:01 binding capacity, Cit peptide (IC50 nM)
[3] = citrullinated 15-mer peptide (X = citrulline), purified HLA-DRB1*01:01, read-out: DRB1*01:01 binding capacity, Cit peptide (IC50 nM)
[4] = ratio of WT IC50 to Cit IC50, >1 = citrullination increases binding
[5] = citrullinated 15-mer peptide (X = citrulline), purified HLA-DRB1*04:01, read-out: DRB1*04:01 binding capacity, Cit peptide (IC50 nM)

| SMILES | IC50 (HLA-DRB1*01:01; [1]) | IC50 (HLA-DRB1*04:01; [2]) | further results |
| --- | --- | --- | --- |
| CC(C)C[C@H](NC(=O)[C@H](CC(N)=O)NC(=O)[C@@H](NC(=O)[C@H](CCC(=O)O)NC(=O)[C@H](CCCNC(=N)N)NC(=O)[C@H](CC(C)C)NC(=O)[C@H](CC(N)=O)NC(=O)[C@@H](N)CC(C)C)[C@@H](C)O)C(=O)N[C@@H](CC(=O)O)C(=O)N[C@@H](CO)C(=O)N[C@@H](CC(C)C)C(=O)N1CCC[C@H]1C(=O)N[C@@H](CC(C)C)C(=O)N[C@H](C(=O)N[C@@H](CC(=O)O)C(=O)O)C(C)C [Vimentin 421 WT] | – | – | IC50 (HLA-DRB1*01:01; wild-type (unmodified Arg) 15-mer peptide, purified HLA-DRB1*01:01, read-out: DRB1*01:01 binding capacity, WT peptide (IC50 nM)): 96 nM; IC50 (HLA-DRB1*04:01; wild-type (unmodified Arg) 15-mer peptide, purified HLA-DRB1*04:01, read-out: DRB1*04:01 binding capacity, WT peptide (IC50 nM)): 3740 nM |
| CC(C)C[C@H](NC(=O)[C@@H](NC(=O)[C@H](CC(N)=O)NC(=O)[C@H](CCC(=O)O)NC(=O)[C@H](C)NC(=O)[C@H](CCC(=O)O)NC(=O)[C@H](CCC(=O)O)NC(=O)[C@@H](N)CCCNC(N)=O)[C@@H](C)O)C(=O)N[C@@H](CCC(N)=O)C(=O)N[C@@H](CO)C(=O)N[C@@H](Cc1ccccc1)C(=O)N[C@@H](CCCNC(=N)N)C(=O)N[C@@H](CCC(N)=O)C(=O)N[C@@H](CC(=O)O)C(=O)N[C@H](C(=O)O)C(C)C [XEEAENTLQSFRQDV] (H-[Cit]EEAENTLQSFRQDV-OH) | 25300 nM | 6330 nM | – |
| C[C@H](NC(=O)CNC(=O)[C@@H]1CCCN1C(=O)[C@H](CO)NC(=O)CNC(=O)[C@H](CCC(=O)O)NC(=O)[C@@H](N)CCCNC(N)=O)C(=O)N[C@@H](CC(=O)O)C(=O)NCC(=O)N1CCC[C@H]1C(=O)N1CCC[C@H]1C(=O)NCC(=O)N[C@@H](CCCNC(=N)N)C(=O)N[C@@H](CC(=O)O)C(=O)NCC(=O)O [XEGSPGADGPPGRDG] (H-[Cit]EGSPGADGPPGRDG-OH; N-terminus and C-terminus assumed) | – | – | IC50 (HLA-DRB1*01:01; [3]): > 40000 nM; DRB1*01:01 binding capacity, WT/cit ratio (HLA-DRB1*01:01; [4]): 1.0; IC50 (HLA-DRB1*04:01; [5]): > 40000 nM; DRB1*04:01 binding capacity, WT/cit ratio (HLA-DRB1*04:01; [4]): 1.0 |
| CSCC[C@H](NC(=O)[C@H](CCC(=O)O)NC(=O)[C@H](CCC(=O)O)NC(=O)[C@H](CCC(N)=O)NC(=O)[C@H](CC(C)C)NC(=O)[C@H](CCCCN)NC(=O)[C@H](CCC(=O)O)NC(=O)[C@@H](N)CCCNC(N)=O)C(=O)N[C@@H](CC(C)C)C(=O)N[C@@H](CCC(N)=O)C(=O)N[C@@H](CCCNC(=N)N)C(=O)N[C@@H](CCC(=O)O)C(=O)N[C@@H](CCC(=O)O)C(=O)N[C@@H](C)C(=O)N[C@@H](CCC(=O)O)C(=O)O [XEKLQEEMLQREEAE] (H-[Cit]EKLQEEMLQREEAE-OH) | 26100 nM | > 40000 nM | – |
| CC[C@H](C)[C@H](NC(=O)[C@H](CC(=O)O)NC(=O)[C@H](CC(C)C)NC(=O)[C@H](C)NC(=O)[C@H](CCSC)NC(=O)[C@H](CCCCN)NC(=O)[C@@H](NC(=O)[C@H](CC(N)=O)NC(=O)[C@H](CC(C)C)NC(=O)[C@H](CC(C)C)NC(=O)[C@H](CC(=O)O)NC(=O)[C@H](CCC(N)=O)NC(=O)[C@H](Cc1ccc(O)cc1)NC(=O)[C@H](CCC(=O)O)NC(=O)[C@@H](N)CCCNC(N)=O)C(C)C)C(=O)O [XEYQDLLNVKMALDI] | – | – | IC50 (HLA-DRB1*01:01; [3]): 57 nM; IC50 (HLA-DRB1*04:01; [5]): 1070 nM |
| CSCC[C@H](NC(=O)[C@@H](NC(=O)CNC(=O)[C@@H]1CCCN1C(=O)[C@H](CCC(N)=O)NC(=O)CNC(=O)[C@@H](N)CCCNC(N)=O)C(C)C)C(=O)NCC(=O)N[C@@H](Cc1ccccc1)C(=O)N1CCC[C@H]1C(=O)NCC(=O)N1CCC[C@H]1C(=O)N[C@@H](CCCCN)C(=O)NCC(=O)N[C@@H](C)C(=O)O [XGQPGVMGFPGPKGA] (H-[Cit]GQPGVMGFPGPKGA-OH) | – | – | IC50 (HLA-DRB1*01:01; [3]): 493 nM; IC50 (HLA-DRB1*04:01; [5]): > 40000 nM |
| CC[C@H](C)[C@H](NC(=O)[C@H](CCCNC(=N)N)NC(=O)[C@H](CO)NC(=O)[C@H](CCC(=O)O)NC(=O)[C@H](CCC(=O)O)NC(=O)CNC(=O)[C@H](CCC(=O)O)NC(=O)[C@H](CC(C)C)NC(=O)[C@H](CC(C)C)NC(=O)[C@H](CCCCN)NC(=O)[C@@H](N)CCCNC(N)=O)C(=O)N[C@@H](CO)C(=O)N[C@@H](CC(C)C)C(=O)N1CCC[C@H]1C(=O)N[C@@H](CC(C)C)C(=O)O [XKLLEGEESRISLPL] | – | – | IC50 (HLA-DRB1*01:01; [3]): 853 nM; IC50 (HLA-DRB1*04:01; [5]): 1890 nM |
| CC(C)C[C@H](NC(=O)[C@H](C)NC(=O)[C@H](CC(=O)O)NC(=O)[C@@H](NC(=O)[C@H](CCC(=O)O)NC(=O)[C@H](CS)NC(=O)[C@@H](NC(=O)[C@H](CC(C)C)NC(=O)[C@H](CO)NC(=O)[C@H](CCC(N)=O)NC(=O)[C@@H](NC(=O)[C@H](CCC(N)=O)NC(=O)[C@@H](N)CCCNC(N)=O)C(C)C)[C@@H](C)O)C(C)C)C(=O)N[C@@H](CCCCN)C(=O)NCC(=O)O [XQVQSLTCEVDALKG] (H-[Cit]QVQSLTCEVDALKG-OH) | – | – | IC50 (HLA-DRB1*01:01; [3]): 5110 nM; IC50 (HLA-DRB1*04:01; [5]): 15500 nM |
| CC(C)C[C@H](NC(=O)[C@H](CC(C)C)NC(=O)[C@H](CCCNC(=N)N)NC(=O)[C@@H](NC(=O)CNC(=O)[C@@H]1CCCN1C(=O)[C@@H](NC(=O)[C@H](CO)NC(=O)[C@H](CO)NC(=O)[C@@H](N)CCCNC(N)=O)C(C)C)C(C)C)C(=O)N[C@@H](CCC(N)=O)C(=O)N[C@@H](CC(=O)O)C(=O)N[C@@H](CO)C(=O)N[C@H](C(=O)N[C@@H](CC(=O)O)C(=O)O)C(C)C [XSSVPGVRLLQDSVD] (H-[Cit]SSVPGVRLLQDSVD-OH) | 533 nM | 9620 nM | – |
| CC(C)C[C@H](NC(=O)[C@H](C)NC(=O)[C@H](CO)NC(=O)CNC(=O)[C@H](CC(C)C)NC(=O)[C@H](CO)NC(=O)[C@H](Cc1ccc(O)cc1)NC(=O)[C@@H](NC(=O)[C@@H](N)CCCNC(N)=O)[C@@H](C)O)C(=O)N[C@@H](CCCNC(=N)N)C(=O)N1CCC[C@H]1C(=O)N[C@@H](CO)C(=O)N[C@H](C(=O)N[C@@H](CO)C(=O)N[C@@H](CCCNC(=N)N)C(=O)O)[C@@H](C)O [XTYSLGSALRPSTSR] (H-[Cit]TYSLGSALRPSTSR-OH) | 53 nM | 4770 nM | – |
| CC(C)C[C@H](NC(=O)[C@H](CCCNC(=N)N)NC(=O)[C@@H](NC(=O)[C@H](C)NC(=O)[C@H](CO)NC(=O)[C@H](CO)NC(=O)[C@H](CCCNC(=N)N)NC(=O)[C@@H](NC(=O)[C@H](C)NC(=O)[C@@H](N)Cc1ccc(O)cc1)[C@@H](C)O)C(C)C)C(=O)N[C@@H](CCCNC(N)=O)C(=O)N[C@@H](CO)C(=O)N[C@@H](CO)C(=O)N[C@H](C(=O)N1CCC[C@H]1C(=O)O)C(C)C [YATRSSAVRLXSSVP] (H-YATRSSAVRL[Cit]SSVP-OH) | 31 nM | 338 nM | – |
| CC(C)C[C@H](NC(=O)[C@H](CCCNC(N)=O)NC(=O)[C@@H](NC(=O)[C@H](C)NC(=O)[C@H](CO)NC(=O)[C@H](CO)NC(=O)[C@H](CCCNC(=N)N)NC(=O)[C@@H](NC(=O)[C@H](C)NC(=O)[C@@H](N)Cc1ccc(O)cc1)[C@@H](C)O)C(C)C)C(=O)N[C@@H](CCCNC(=N)N)C(=O)N[C@@H](CO)C(=O)N[C@@H](CO)C(=O)N[C@H](C(=O)N1CCC[C@H]1C(=O)O)C(C)C [YATRSSAVXLRSSVP] (H-YATRSSAV[Cit]LRSSVP-OH) | 41 nM | 3220 nM | – |
| CC(C)C[C@H](NC(=O)[C@H](CCCNC(=N)N)NC(=O)[C@@H](NC(=O)[C@H](C)NC(=O)[C@H](CO)NC(=O)[C@H](CO)NC(=O)[C@H](CCCNC(N)=O)NC(=O)[C@@H](NC(=O)[C@H](C)NC(=O)[C@@H](N)Cc1ccc(O)cc1)[C@@H](C)O)C(C)C)C(=O)N[C@@H](CCCNC(=N)N)C(=O)N[C@@H](CO)C(=O)N[C@@H](CO)C(=O)N[C@H](C(=O)N1CCC[C@H]1C(=O)O)C(C)C [YATXSSAVRLRSSVP] (H-YAT[Cit]SSAVRLRSSVP-OH) | 12 nM | 3720 nM | – |
| CC(C)C[C@H](NC(=O)[C@H](CC(=O)O)NC(=O)[C@H](C)NC(=O)[C@H](Cc1ccccc1)NC(=O)[C@H](CCCCN)NC(=O)[C@H](CO)NC(=O)[C@H](CCCCN)NC(=O)[C@@H](N)Cc1ccc(O)cc1)C(=O)N[C@@H](CO)C(=O)N[C@@H](CCC(=O)O)C(=O)N[C@@H](C)C(=O)N[C@@H](C)C(=O)N[C@@H](CC(N)=O)C(=O)N[C@@H](CCCNC(N)=O)C(=O)N[C@@H](CC(N)=O)C(=O)O [YKSKFADLSEAANXN] (H-YKSKFADLSEAAN[Cit]N-OH) | 292 nM | 1110 nM | – |
| CSCC[C@H](NC(=O)[C@H](CCCNC(=N)N)NC(=O)[C@H](CCCNC(=N)N)NC(=O)[C@@H](N)Cc1ccc(O)cc1)C(=O)N[C@@H](Cc1ccccc1)C(=O)NCC(=O)NCC(=O)N1CCC[C@H]1C(=O)NCC(=O)N[C@H](C(=O)N[C@@H](C)C(=O)N[C@@H](CO)C(=O)N[C@@H](CCCNC(N)=O)C(=O)N1CCC[C@H]1C(=O)N[C@@H](CO)C(=O)O)[C@@H](C)O [YRRMFGGPGTASXPS] (H-YRRMFGGPGTAS[Cit]PS-OH) | 334 nM | 6870 nM | – |
| CSCC[C@H](NC(=O)[C@H](CCCNC(N)=O)NC(=O)[C@H](CCCNC(=N)N)NC(=O)[C@@H](N)Cc1ccc(O)cc1)C(=O)N[C@@H](Cc1ccccc1)C(=O)NCC(=O)NCC(=O)N1CCC[C@H]1C(=O)NCC(=O)N[C@H](C(=O)N[C@@H](C)C(=O)N[C@@H](CO)C(=O)N[C@@H](CCCNC(=N)N)C(=O)N1CCC[C@H]1C(=O)N[C@@H](CO)C(=O)O)[C@@H](C)O [YRXMFGGPGTASRPS] (H-YR[Cit]MFGGPGTASRPS-OH) | 512 nM | 15800 nM | – |
| CSCC[C@H](NC(=O)[C@H](CCCNC(=N)N)NC(=O)[C@H](CCCNC(N)=O)NC(=O)[C@@H](N)Cc1ccc(O)cc1)C(=O)N[C@@H](Cc1ccccc1)C(=O)NCC(=O)NCC(=O)N1CCC[C@H]1C(=O)NCC(=O)N[C@H](C(=O)N[C@@H](C)C(=O)N[C@@H](CO)C(=O)N[C@@H](CCCNC(=N)N)C(=O)N1CCC[C@H]1C(=O)N[C@@H](CO)C(=O)O)[C@@H](C)O [YXRMFGGPGTASRPS] (H-Y[Cit]RMFGGPGTASRPS-OH) | 252 nM | 27400 nM | – |
